Source: patent publication US20190030053A1, “COMPOSITION FOR INCREASING EXPRESSION OF PGC-1alpha” (BENEBIOSIS CO., LTD., priority 2016, published 2019)

Key:
telomerase = experiment: Telomerase activity (TRAP) in vivo, aorta of arteriosclerosis models (ApoE−/−); design: species or system mouse; conditions: ApoE−/− mice, high-fat diet, oral 0.1 mg/kg/day, 6 weeks
Text: In order to investigate the aging-related chronic disease preventing effect through the control of telomerase functions and DNA damage by the treatment with SL (3′-SL & 6′-SL) compositions in arteriosclerosis models, two types of 24-week-old male model mice (PGC-1α^+/+ApoE^−/−) were randomly grouped into three different dietary treatment groups (8 animals per group) below, and the diets were maintained for 6 weeks (a total of 24 animals): • Control group: Arteriosclerosis models fed with a high-fat diet (Rodent Diet with 60 kcal % fat) (8 animals) • 3′-SL administration group: Arteriosclerosis models treated with 3′-sialyllactose (3′-SL, Sigma) (oral administration of 0.1 mg per kg of mouse weight per day) in addition to the high-fat diet group (8 animals) • 6′-SL administration group: Arteriosclerosis models treated with 6′-sialyllactose (6′-SL, Sigma) (oral administration of 0.1 mg per kg of mouse weight per day) in addition to the high-fat diet group (8 animals)
In FIG. 20, the telomerase activity was measured using TRAP protocol (Wright et al., 1995). […] The fluorescence of the thus obtained TRAP product was measured using a fluorescent plate reader to quantify telomerase activity. Relative telomerase activity was normalized by the ratio of native […] to sulforhodamine (internal control standard), expressed as a percentage. […]

[1] = system: skin test model (HRM2) mice; experiment: Skin tests (UV irradiation, skin sensitivity, skin irritation, subcutaneous absorption) in skin test model mice; type: in vivo, mouse; conditions: oral 0.1 mg/kg/day, 10 weeks
Text: In order to investigate the gene expression chages by body parts by the treatment with the SL (3′-SL & 6′-SL) compositions in skin test models, 6-week-old male skin test model (HRM2) mice (hairless appearance containing melanin) were randomly grouped into three different dietary treatment groups (8 animals per group, a total of 24 animals) below, and the diets (AIN-76A, Dyets, USA) were maintained for 10 weeks. The UV irradiation (black spot, wrinkle test), skin sensitivity test, skin irritation test, subcutaneous absorption test, or the like were conducted using a portable color-difference meter (CR-10, Minolta, Japan): • Control group: Group fed with a normal diet (8 animals) • 3′-SL administration group: Models treated with 3′-sialyllactose (3′-SL, Sigma) (oral administration of 0.1 mg per kg of mouse weight per day) in addition to the normal diet group (8 animals) • 6′-SL administration group: Models treated with 6′-sialyllactose (6′-SL, Sigma) (oral administration of 0.1 mg per kg of mouse weight per day) in addition to the normal diet group (8 animals)

PGC-1α and related genes = experiment: Gene expression in brain and hippocampus of Parkinson's disease models; type: in vivo, rat; conditions: 6-OHDA SD rats, oral 0.1 mg/kg/day
Text: In order to investigate the changes in gene expression and behavior improvement by the treatment with SL (3′-SL & 6′-SL) compositions in Parkinson's brain disease models, 13-week-old normal SD rats and Parkinson's brain disease models were purchased from Central Lab Animal (Korea). Water was freely accessible, and a commercially available pellet feed (Dooyeul Biotech, Korea) was given for one week. At 14 weeks of age, the SD rats were divided into four groups (composed of 8 animals per group): Eight 14-week-old male SD rats (normal rats; initial body weight, average 355.6±32.3 g) treated with a normal diet were used for a control group. […]
Sialyllactose or DW was orally administered daily. […] The dietary intake and body weight change were measured every 5 days. […]
The gene expression changes by the treatment with SL (3′-SL & 6′-SL) compositions were quantitatively compared in two main organs (brain and hippocampus) associated with bran diseases. RNA was extracted by TRIzol agent (Invitrogen). cDNA was synthesized by using RNA, which has been extracted as above and quantified, and a reverse transcription system (Promega, USA). The expression patterns of PGC-1α and related genes were measured by using pre-designed primers and probes (Applied Biosystems; PGC-1α, Mm00447181_m1, GAPDH, and Mm99999915_q1) for the synthesized cDNA and analysis targets (Fndc5, PGC-1α, Erra, UCP1, BDNF, SOD2, and GPX1). […]

| SMILES | telomerase activity in aorta sample (in vivo) (telomerase) | skin state in UV irradiation (black spot, wrinkle test), skin sensitivity, skin irritation, subcutaneous absorption tests vs control [1] | expression levels of PGC-1α and related genes vs SL non-administration (Parkinson's disease model) group (PGC-1α and related genes) | expression levels of PGC-1α and related genes vs normal control group (PGC-1α and related genes) |
| --- | --- | --- | --- | --- |
| CC(=O)N[C@H]1[C@H]([C@H](O)[C@H](O)CO)O[C@@](O[C@H]2[C@@H](O)[C@@H](CO)O[C@@H](O[C@H]3[C@H](O)[C@@H](O)C(O)O[C@@H]3CO)[C@@H]2O)(C(=O)O)C[C@@H]1O (stereo partly drawn) [3′-SL, α-NeuNAc-(2→3)-β-D-Gal-(1→4)-D-Glc] | increased telomerase activity | much improved skin | relatively low compared with 6′-SL | – |
| CC(=O)N[C@H]1[C@H]([C@H](O)[C@H](O)CO)O[C@@](OC[C@H]2O[C@@H](O[C@H]3[C@H](O)[C@@H](O)[C@H](O)O[C@@H]3CO)[C@H](O)[C@@H](O)[C@H]2O)(C(=O)O)C[C@@H]1O [6′-SL, α-NeuNAc-(2→6)-β-D-Gal-(1→4)-D-Glc] | increased telomerase activity | much improved skin | very high | somewhat lower |
